How the values were obtained:
Format in all cases: in vivo
[1] = system: Diabrotica balteata (Corn Rootworm); experiment: Diabrotica balteata seed treatment test, larval mortality; conditions: treated corn seeds, L3 larvae, 6 days incubation
Experimental: Diabrotica Balteata (Corn Rootworm)
Treated corn seeds are sown in a 350 ml pot filled with soil. Two weeks after sowing corn seedlings are infested with L3 larvae of Diabrotica balteata. After an incubation period of 6 days survived larvae are counted.

[2] = system: Agriotes sp. (Wireworms); experiment: Agriotes sp. (wireworms) drench soil test with maize seedlings; conditions: 14 days after treatment
Experimental: Plastic beakers are prepared with 100 ml drench soil. Afterwards 12.5 ml compound solution is mixed in each plastic beaker and three maize seedlings are added. At the same day five wireworms are placed into each plastic beaker and these are covered up with a lid. Fourteen days after treatment the number of dead and moribund wireworms are evaluated. Wireworms are assessed as moribund if they were not able to bury into the soil in one hour after having been put onto the soil surface.

[3] = system: Agriotes sp. (Wireworms); experiment: Agriotes sp. (wireworms) seed treatment test; conditions: treated corn seeds, 1 mg/seed, 14 days incubation
Experimental: Treated corn seeds are sown in a 350 ml pot filled with soil. One week after sowing corn seedlings are infested with wireworms. After an incubation period of 14 days healthy and affected larvae (intoxicated, moribund, dead) are counted.

[4] = system: Diabrotica balteata (Corn Rootworm); experiment: Diabrotica balteata in-furrow application, plant damage on maize; conditions: L2 larvae, 6 days after infestation
Experimental: (§1) Diabrotica Balteata (Corn Rootworm):
(§2) Plastic boxes (17×27×22 cm) are filled with 8 L of drench soil and 6 maize seeds are sown into a furrow. 10 ml of spray solution are applied with a hand sprayer into the furrow on the planted seeds and the furrow is closed afterwards. Two weeks after sowing each box is infested with 15 Diabrotica balteata L2 larvae. 6 days after infestation the plant damage is assessed. Plants are considered as either damaged or healthy. Dead plants, plants with hollow stems or entry holes are considered as damaged. The test is carried out with five replicates (boxes) per treatment. For in-furrow application the control is replicated five times with the application of water.
(§3) As six seeds are used per replicate, the total amount of active ingredient applied in furrow is six times the rate per seed in the seed treatment test.

[5] = system: Diabrotica balteata (Corn Rootworm); experiment: Diabrotica balteata seed treatment, plant damage on maize; conditions: L2 larvae, 6 days after infestation
Experimental: as §1, §2
For the assessment as seed treatment 6 treated seeds are planted 0.5 cm deep into the soil. Exactly the same setup is used as with the in furrow treatment described above except that no spray solution is applied. For seed treatment the control is replicated five times without seed coating.
as §3

SMILES | % Larval mortality ([1]; 1 mg/seed) [%] | % Larval mortality ([1]; 0.3 mg/seed) [%] | other results
CCN1OC[C@@H](NC(=O)c2ccc(C3=NO[C@@](c4cc(Cl)cc(Cl)c4)(C(F)(F)F)C3)cc2C)C1=O [Compound A17] | 83 | – | % Moribund & dead ([2]; application rate 0.8 ppm): 100%; % Moribund & dead ([2]; application rate 3 ppm): 100%; % Moribund & dead ([2]; application rate 12.5 ppm): 100%; % Mortality and moribund/intoxicated [3]: 80%
CCN1OC[C@@H](NC(=O)c2ccc(C3=NO[C@@](c4cc(Cl)c(F)c(Cl)c4)(C(F)(F)F)C3)cc2C)C1=O [Compound 2] | – | – | Reduction in plant damage compared to control (in-furrow application) ([4]; 0.1 mg AI per seed): 95%; Reduction in plant damage compared to control (in-furrow application) ([4]; 0.5 mg AI per seed): 91%; Reduction in plant damage compared to control (seed treatment) ([5]; 0.1 mg AI per seed): 35%; Reduction in plant damage compared to control (seed treatment) ([5]; 0.5 mg AI per seed): 75%
Cc1cc(C2=NO[C@@](c3cc(Cl)cc(Cl)c3)(C(F)(F)F)C2)ccc1C(=O)N[C@@H]1CON(CC(F)(F)F)C1=O [Compound 1] | – | – | Reduction in plant damage compared to control (in-furrow application) ([4]; 0.1 mg AI per seed): 67%; Reduction in plant damage compared to control (in-furrow application) ([4]; 0.5 mg AI per seed): 95%; Reduction in plant damage compared to control (seed treatment) ([5]; 0.1 mg AI per seed): 25%; Reduction in plant damage compared to control (seed treatment) ([5]; 0.5 mg AI per seed): 50%
CCN1OCC(NC(=O)c2ccc(C3=NOC(c4cc(Cl)cc(Cl)c4)(C(F)(F)F)C3)cc2C)C1=O (mixture of isomers) [Compound A9] | – | – | % Moribund & dead ([2]; application rate 0.8 ppm): 50%; % Moribund & dead ([2]; application rate 3 ppm): 75%; % Moribund & dead ([2]; application rate 12.5 ppm): 100%; % Mortality and moribund/intoxicated [3]: 25%
Cc1cc(C2=NOC(c3cc(Cl)c(Cl)c(Cl)c3)(C(F)(F)F)C2)ccc1C(=O)NC1CON(CC(F)(F)F)C1=O (mixture of isomers) [Compound A1] | – | 87 | –
Cc1cc(C2=NO[C@@](c3cc(Cl)c(F)c(Cl)c3)(C(F)(F)F)C2)ccc1C(=O)N[C@@H]1CON(CC(F)(F)F)C1=O [Compound A20] | 100 | – | –
CCN1OCC(NC(=O)c2ccc(C3=NCC(c4cc(Cl)cc(Cl)c4)(C(F)(F)F)C3)cc2C)C1=O (stereo not drawn) [Compound C2] | 50 | – | –
Cc1cc(C2=NOC(c3cc(Cl)cc(Cl)c3)(C(F)(F)F)C2)ccc1C(=O)NC1CON(CC(F)F)C1=O (mixture of isomers) [Compound A6] | – | 87 | –
CCN1OC[C@@H](NC(=O)c2ccc(C3=NO[C@@](c4cc(Cl)c(Cl)c(Cl)c4)(C(F)(F)F)C3)cc2C)C1=O [Compound A19] | 100 | – | –
Cc1cc(C2=NOC(c3cc(Cl)cc(Cl)c3)(C(F)(F)F)C2)ccc1C(=O)NC1CON(CC(F)(F)F)C1=O (mixture of isomers) [Compound A8] | – | 79 | % Mortality and moribund/intoxicated [3]: 100%
Cc1cc(C2=NCC(c3cc(Cl)cc(Cl)c3)(C(F)(F)F)C2)ccc1C(=O)NC1CON(CC(F)(F)F)C1=O (stereo not drawn) [Compound C1] | 100 | – | –
CCN1OCC(NC(=O)c2ccc(C3=NOC(c4cc(C(F)(F)F)c(Cl)c(C(F)(F)F)c4)(C(F)(F)F)C3)cc2C)C1=O (mixture of isomers) [Compound A15] | – | 100 | –
Cc1cc(C2=NO[C@@](c3cc(Cl)cc(Cl)c3)(C(F)(F)F)C2)ccc1C(=O)N[C@@H]1CON(CC(F)F)C1=O [Compound A14] | 100 | – | –
Cc1cc(C2=NO[C@@](c3cc(Cl)cc(Cl)c3)(C(F)(F)F)C2)ccc1C(=O)N[C@@H]1CON(CC(F)(F)F)C1=O [Compound A16] | 100 | – | % Moribund & dead ([2]; application rate 0.8 ppm): 100%; % Moribund & dead ([2]; application rate 3 ppm): 100%; % Moribund & dead ([2]; application rate 12.5 ppm): 100%; % Mortality and moribund/intoxicated [3]: 100%
Cc1cc(C2=NOC(c3cc(Cl)cc(Cl)c3)(C(F)(F)F)C2)ccc1C(=O)NC1CON(C)C1=O (mixture of isomers) [Compound A2] | – | 96 | –
Cc1cc(C2=NO[C@@](c3cc(Cl)c(Cl)c(Cl)c3)(C(F)(F)F)C2)ccc1C(=O)N[C@@H]1CON(CC(F)(F)F)C1=O [Compound A21] | 100 | – | –
Cc1cc(N2CCC(c3cc(Cl)cc(Cl)c3)(C(F)(F)F)C2)ccc1C(=O)NC1CON(CC(F)(F)F)C1=O (racemic) [Compound D1] | – | 83 | –
CCN1OCC(NC(=O)c2ccc(C3=NOC(c4cc(Cl)c(F)c(Cl)c4)(C(F)(F)F)C3)cc2C)C1=O (mixture of isomers) [Compound A5] | – | 96 | –
CCN1OCC(NC(=O)c2ccc(C3=NCC(c4cc(Cl)c(Cl)c(Cl)c4)(C(F)(F)F)C3)cc2C)C1=O (racemic) [Compound C3] | 100 | – | –
CCN1OC[C@@H](NC(=O)c2ccc(C3=NO[C@@](c4cc(Cl)cc(C(F)(F)F)c4)(C(F)(F)F)C3)cc2C)C1=O [Compound A12] | – | 88 | –
CCN1OC[C@@H](NC(=O)c2ccc(C3=NO[C@@](c4cc(Cl)cc(Br)c4)(C(F)(F)F)C3)cc2C)C1=O [Compound A11] | 100 | – | –
CCN1OCC(NC(=O)c2ccc(C3=NOC(c4cc(Cl)c(Cl)c(Cl)c4)(C(F)(F)F)C3)cc2C)C1=O (mixture of isomers) [Compound A23] | 100 | – | –
CCN1OCC(NC(=O)c2ccc(C3=NOC(c4cc(F)cc(Cl)c4)(C(F)(F)F)C3)cc2C)C1=O (mixture of isomers) [Compound A22] | 92 | – | –
CCN1OC[C@@H](NC(=O)c2ccc(C3=NO[C@@](c4cc(Cl)c(F)c(Cl)c4)(C(F)(F)F)C3)cc2C)C1=O [Compound A18] | – | 96 | –
